Experimental findings from patent US8618094B2, “Fused substituted aminopyrrolidine derivative” (Daiichi Sankyo Company, Limited, priority 2007, dated 2013) are described below.

Structures are written as SMILES. ≈ marks a conversion by molar mass, not a printed value. Like-named read-outs stand apart in the source and are kept apart here. Where only a bound is given, the exact number is not on record here.

The term melting point denotes the temperature of the solid-liquid transition.

Series [1] in a line: Mouse phototoxicity test after intravenous administration. The class given is in vivo.
Series [2] relates to mouse bone marrow. The series can be described thus: Mouse bone marrow micronucleus test after intravenous administration. The class given is in vivo. An excerpt:
The compound represented by the formula 365 was confirmed to be positive for induction of micronuclei in a mouse bone marrow micronucleus test after intravenous administration.

Series [3] deals with M(B). Caterrhalis ATCC25238. The series can be described thus: Antibacterial activity (MIC), standard method of the Japanese Society of Chemotherapy. In kind it is cell-based. As for the experimental part: (§1) Antibacterial activity of the compounds of the present invention was measured in accordance with the standard method specified by the Japanese Society of Chemotherapy.
Series [4] deals with E. faecalis 19433. Described as above. The class given is cell-based. The settings on record: Enterococcus faecalis. As for the experimental part: as §1
The subject of series [5] is S. marcescens 10100. The series is described as above. The class given is cell-based. The conditions noted are these: Serratia marcescens. As for the experimental part:
as §1

For series [6], the system named is S. aureus FDA 209-P. The description is as above. The class given is cell-based. The settings on record: Staphylococcus aureus, FDA209. As for the experimental part:
as §1

The test system of series [7] is E. cloacae 03400. Described as above. The class given is cell-based. The settings on record: Enterobacter cloacae. As for the experimental part:
as §1

In series [8] the test system is S. pneumoniae 104835. The description is as above. In kind it is cell-based. The conditions noted are these: Streptococcus pneumoniae. As for the experimental part:
as §1

Series [9] relates to S. epidermidis 56500. Described as above. The class given is cell-based. The settings on record: Staphylococcus epidermidis. The method, then:
as §1

In series [10] the test system is S. pyogenes JCM5674(ATCC12344). Described as above. The class given is cell-based. The conditions noted are these: Streptococcus pyogenes. The method, then:
as §1

In series [11] the test system is S. aureus 870307. Described as above. In kind it is cell-based. The settings on record: Staphylococcus aureus. As for the experimental part:
as §1

Series [12] relates to S. pneumoniae J24. The description is as above. The conditions noted are these: Streptococcus pneumoniae. The class given is cell-based. The method, then:
as §1

Series [13] has as its system P. aeruginosa PAO1. Described as above. The class given is cell-based. The settings on record: Pseudomonas aeruginosa. The method, then:
as §1

Series [14] relates to P. mirabilis 08103. The series is described as above. The conditions noted are these: Proteus mirabilis. In kind it is cell-based. As for the experimental part: as §1
For series [15], the system named is K. pneumoniae TYPE 1. The description is as above. The settings on record: Klebsiella pneumoniae, TYPE1. The class given is cell-based. The method, then: as §1
Series [16] relates to H. influenzae ATCC49247. The series is described as above. The class given is cell-based. The conditions noted are these: Haemophilus influenzae. As for the experimental part:
as §1

For series [17], the system named is E. coli NIHJ. The description is as above. In kind it is cell-based. The settings on record: Escherichia coli. The method, then: as §1
Setting [18] is: M(B). Caterrhalis ATCC25238 (first half of Table 2), read-out: MIC, M(B). Caterrhalis ATCC25238.
[19] abbreviates: H. influenzae ATCC49247 (first half of Table 2), read-out: MIC, H. influenzae ATCC49247.

Regarding `COc1c(N2C[C@@H]3CCC[C@]3(N)C2)c(F)cc2c(=O)c(C(=O)O)cn([C@@H]3C[C@@H]3F)c12` (single isomer, unassigned) [Example 11, 7-{(1R*,5S*)-1-Amino-3-azabicyclo[3.3.0]octan-3-yl}-6-fluoro-1-[(1R,2S)-2-fluorocyclopropyl]-8-methoxy-1,4-dihydro-4-oxoquinoline-3-carboxylic acid], the melting point lay within 169 to 172 °C. Moreover, in [1], the phototoxicity result was “negative”. In addition, in series [2], the induction of micronuclei result is on record as “negative”. Besides, the MIC in [3] (setting [18]) turned out to be 0.025 µg/mL (≈ 0.0596 µM). The compound further registered an MIC in series [4] of 0.1 µg/mL (≈ 0.238 µM). Besides, the MIC in series [5] came to 0.1 µg/mL (≈ 0.238 µM). Moreover, the MIC in series [6] is 0.012 µg/mL (≈ 0.0286 µM). The compound further came in with an MIC in series [7] of 0.012 µg/mL (≈ 0.0286 µM). The compound also gave an MIC in series [8] of 0.39 µg/mL (≈ 0.93 µM). Moreover, in [9], the MIC worked out at 0.05 µg/mL (≈ 0.119 µM). Further, the MIC in series [10] was determined as 0.025 µg/mL (≈ 0.0596 µM). In series [11], this compound gave an MIC of 0.78 µg/mL (≈ 1.86 µM). The compound also returned an MIC in series [12] of 0.05 µg/mL (≈ 0.119 µM). This compound also displayed an MIC in [13] of 0.78 µg/mL (≈ 1.86 µM). In [14], this compound showed an MIC of 0.05 µg/mL (≈ 0.119 µM). For the same compound, the MIC in [15] is 0.1 µg/mL (≈ 0.238 µM). Also, the MIC in series [16] (setting [19]) came out at 0.006 µg/mL (≈ 0.0143 µM). The compound further returned an MIC in series [17] of 0.025 µg/mL (≈ 0.0596 µM).

Regarding `COc1c(N2C[C@H]3CC=C[C@@]3(N)C2)c(F)cc2c(=O)c(C(=O)O)cn([C@@H]3C[C@@H]3F)c12` [Example 24, 7-[(1S,5R)-1-Amino-3-azabicyclo[3.3.0]oct-7-en-3-yl]-6-fluoro-1-[(1R,2S)-2-fluorocyclopropyl]-8-methoxy-1,4-dihydro-4-oxoquinoline-3-carboxylic acid], the melting point fell in the range of 206 to 208 °C. The MIC in [3] (setting [18]) was 0.05 µg/mL (≈ 0.12 µM). This compound also came in with an MIC in series [4] of 0.1 µg/mL (≈ 0.24 µM). In [5], this compound returned an MIC of 0.2 µg/mL (≈ 0.479 µM). The compound further came in with an MIC in series [6] of 0.025 µg/mL (≈ 0.0599 µM). The same compound registered an MIC in series [7] of 0.025 µg/mL (≈ 0.0599 µM). The MIC in [8] amounted to 0.39 µg/mL (≈ 0.934 µM). In addition, the MIC in [9] is 0.1 µg/mL (≈ 0.24 µM). This compound also showed an MIC in series [10] of 0.1 µg/mL (≈ 0.24 µM). In series [11], this compound had an MIC of 0.78 µg/mL (≈ 1.87 µM). This compound also had an MIC in [12] of 0.05 µg/mL (≈ 0.12 µM). For the same compound, in series [13], the MIC amounted to 0.39 µg/mL (≈ 0.934 µM). In [14], this compound gave an MIC of 0.025 µg/mL (≈ 0.0599 µM). This compound came in with an MIC in series [15] of 0.1 µg/mL (≈ 0.24 µM). Further, the MIC in series [16] (setting [19]) came to 0.006 µg/mL (≈ 0.0144 µM). Moreover, the MIC in [17] turned out to be 0.025 µg/mL (≈ 0.0599 µM).

With `Cc1c(N2C[C@@H]3CCOC[C@@]3(N)C2)c(F)cc2c(=O)c(C(=O)O)cn([C@@H]3C[C@@H]3F)c12` [Example 44, 7-[(1S,6S)-1-Amino-3-oxa-8-azabicyclo[4,3,0]nonan-8-yl]-6-fluoro-1-[(1R,2S)-2-fluorocyclopropyl]-1,4-dihydro-8-methyl-4-oxoquinoline-3-carboxylic acid], the melting point was in the range of 159 to 161 °C. In [3] (M(B). Caterrhalis [sic] ATCC49247 (Table 2), read-out: MIC, M(B). Caterrhalis ATCC49247), the MIC was 0.006 µg/mL (≈ 0.0143 µM). The MIC in series [4] is 0.1 µg/mL (≈ 0.238 µM). The compound further registered an MIC in series [5] of 0.05 µg/mL (≈ 0.119 µM). In [6], this compound registered an MIC of 0.012 µg/mL (≈ 0.0286 µM). The compound also registered an MIC in series [7] of 0.006 µg/mL (≈ 0.0143 µM). The same compound yielded an MIC in series [8] of 0.39 µg/mL (≈ 0.93 µM). The same compound showed an MIC in series [9] of 0.025 µg/mL (≈ 0.0596 µM). In series [10], this compound displayed an MIC of 0.05 µg/mL (≈ 0.119 µM). For the same compound, the MIC in [11] came to 0.2 µg/mL (≈ 0.477 µM). This compound also came in with an MIC in [12] of 0.05 µg/mL (≈ 0.119 µM). Moreover, in [13], the MIC is 0.39 µg/mL (≈ 0.93 µM). The compound further returned an MIC in [14] of 0.025 µg/mL (≈ 0.0596 µM). The compound further returned an MIC in series [15] of 0.025 µg/mL (≈ 0.0596 µM). Moreover, the MIC in series [16] (ATCC 25238 / ATCC 49247, H. influenzae ATCC25238 as printed (second half of Table 2), read-out: MIC, H. influenzae ATCC25238) is at most 0.003 µg/mL. Further, the MIC in series [17] is at most 0.003 µg/mL.

Turning to `N[C@@]12CCC[C@@H]1CN(c1c(F)cc3c(=O)c(C(=O)O)cn(C4CC4)c3c1F)C2` [formula 365, reference compound], the phototoxicity entry in [1] is “positive”. Further, in [2], the induction of micronuclei result is reported as “positive”.
